Laboratory results taken from patent US20090233299A1, “Physiogenomic Method for Predicting Statin Injury to Muscle and Muscle Side Effects” (GENOMAS, INC., priority 2005, published 2009).

How the values were obtained:
[1] = human, in vivo
[2] = deaths associated with the drug before its withdrawal in August 2001; cited from earlier work

Compound | Median CK [1] [u/l] | rhabdomyolysis-related deaths [2]
CC(C)c1c(C(=O)Nc2ccccc2)c(-c2ccccc2)c(-c2ccc(F)cc2)n1CC[C@@H](O)C[C@@H](O)CC(=O)O [atorvastatin] | 84 | –
COCc1c(C(C)C)nc(C(C)C)c(/C=C/[C@@H](O)C[C@@H](O)CC(=O)O)c1-c1ccc(F)cc1 [cerivastatin] | – | approx. 100
CCC(C)(C)C(=O)O[C@H]1C[C@@H](C)C=C2C=C[C@H](C)[C@H](CC[C@@H]3C[C@@H](O)CC(=O)O3)[C@H]21 [simvastatin] | 77 | –
